The values that follow come from ChEMBL document CHEMBL1126951, “Structure-based design of inhibitors of purine nucleoside phosphorylase. 2. 9-Alicyclic and 9-heteroalicyclic derivatives of 9-deazaguanine” (J Med Chem, 1993).

Assay [1] deals with T1, Purine nucleoside phosphorylase (Bos taurus, UniProt P55859).
T1 sequence (P55859 whole entry): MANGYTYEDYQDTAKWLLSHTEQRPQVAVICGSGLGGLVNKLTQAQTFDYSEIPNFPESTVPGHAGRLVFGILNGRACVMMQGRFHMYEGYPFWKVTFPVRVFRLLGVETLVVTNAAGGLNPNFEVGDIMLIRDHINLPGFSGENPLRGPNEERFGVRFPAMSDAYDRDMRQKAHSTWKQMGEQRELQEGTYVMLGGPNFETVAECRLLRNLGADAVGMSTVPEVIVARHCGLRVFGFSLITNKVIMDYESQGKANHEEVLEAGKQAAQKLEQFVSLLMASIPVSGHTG
Description: Inhibition of purine nucleoside phosphorylase from calf spleen in 50 mM phosphate.

Assay [2] addresses T1, Purine nucleoside phosphorylase. Nature of the assay: biochemical.
Description: In vitro inhibition of purine nucleoside phosphorylase from calf spleen in 1 mM phosphate

pIC50: −log10 of the molar value.

Broadly, the pIC50 is the negative decadic logarithm of the IC50, by convention in mol/L. A lower pIC50 goes with a high IC50. Turning to `Nc1nc2c(CC3CCCO3)c[nH]c2c(=O)[nH]1` (centres undefined), the negative logarithm of the IC50 (pIC50) in assay [1] was 6.52; in assay [2] it was 7.15.

In assay [1], `Nc1nc(O)c2[nH]cc(C3CCCCC3)c2n1` had a pIC50 of 3.82. On the same count and under the same terms, to `Nc1nc(O)c2[nH]cc(CC3CCCSS3)c2n1` (centres undefined) belongs 6.70. For `Nc1nc(O)c2[nH]cc(C3=CCCCC3)c2n1`, the pIC50 is 4.72 in assay [1] and 5.72 in assay [2]. For `Nc1nc2c(CC3CCCCCC3)c[nH]c2c(=O)[nH]1`, in assay [1], the negative logarithm of the IC50 (pIC50) is 6.07. For the molecule `CC1CCCC(Cc2c[nH]c3c(=O)[nH]c(N)nc23)C1` (centres undefined), the pIC50 in assay [1] is 6.09.

As for `Nc1nc2c(CC3CCCNC3)c[nH]c2c(=O)[nH]1` (centres undefined), the negative-log IC50 (pIC50) in assay [1] and in assay [2] was 6.00 each time.

As for `Nc1nc(O)c2[nH]c(N)c(CC3CCCCC3)c2n1`, the values for the negative logarithm of the IC50 (pIC50) in assay [1] and in assay [2] were 3.82 and 5.18, respectively. In the case of `Nc1nc2c(CC3CCCS3)c[nH]c2c(=O)[nH]1` (centres undefined), the values for the pIC50 in assay [1] and in assay [2] were 6.66 and 7.96, respectively.
